Laboratory results from patent US9499823B2, “Constructs expressing chimeric receptors and use thereof for the controlled activation of defence response to pathogens in plants” (priority 2009, dated 2016).
Where no end group is shown, it is not given here.

What was measured:
[1] = system: RetOx, CYP81F2 and PAD3 transcripts; test: Elicitor-induced accumulation of Ret-Ox, CYP81F2 and PAD3 transcripts, semi-quantitative PCR; assay type: cell-based, Arabidopsis thaliana; details: flg22 1 μM, 30 minutes
Description: B) Elicitor induced accumulation of Ret-Ox, CYP81F2 and PAD3 transcripts analysed by semi-quantitative PCR, using the UBQ5 gene for normalization. Leaves were incubated with water, flg22 (1 μM), elfl8 (10 μM) or a generic peptide (10 μM) for 30 minutes. The experiment was repeated three times with similar results. The same experiment was performed in a second independent transgenic line expressing eJMC with similar results.
3,3′-diaminobenzidine (DAB) staining, callose deposition and gene resistance analysis were assayed as described (Galletti et al., 2008). For measuring active oxygen species released by tobacco agroinfiltrated plants after elicitor treatment, the authors used a modified luminol-dependent assay (Gomez et al., 1999). Slices, corresponding to approximately 30 mg fresh weight, were transferred to assay tubes containing 1 μM flg22 or 10 μM elfl8 in aqueous solution supplied with 40 μM luminol (SIGMA). Chemo-luminescence was measured in a liquid scintillation counter (LS-6500, Beckman) after 5 and 15 min upon addition of elicitors.
Fluorescent eJMC and FLS2 were also stably expressed in transgenic Arabidopsis ecotype Wassilewskija (Ws-0), which carries EFR but lacks a flg22 perception system (Gomez-Gomez et al., 1999, Bauer et al., 2001). Transformed T1 plants expressing the proteins, named eJMC plants and FLS2 plants, respectively, were selected by confocal microscopy analysis of adult rosette leaves. […] Fluorescence was detected only in adult rosette leaves, likely due to a low expression level of the receptor at the different developmental stages.

[2] = system: ethylene biosynthesis in tobacco leaves; test: Induction of ethylene biosynthesis in agroinfiltrated tobacco leaf explants; assay type: cell-based, Nicotiana tabacum; details: flg22, 2 h; compared with EFR-expressing explants as negative controls
Description: F) Induction of ethylene biosynthesis in agroinfiltrated tobacco leaves expressing the fluorescent EFR, FLS2, TMC, eJMC and eJMC^Y859A. NC: negative control, represented by agroinfiltrated leaf tissues expressing fluorescent EFR or FLS2 and elicited with flg22 or elfl8, respectively. Results are averages±standard error (n=3).
Excised infiltrated leaf sectors were stimulated for 2 h with water or the elicitor ([…] and 100 μg/ml for OGs). Values are means±s.e.m. (N=3).
E) Induction of ethylene biosynthesis in agroinfiltrated tobacco leaves expressing EFR, WAK1, WEG and EWAK. Each construct was stimulated for 2 h with elfl8 (10 μM) or OGs (100 μg/mL). NC: negative control, represented by agroinfiltrated leaf tissue expressing EFR or FLS2 when OGs or elfl8, respectively, were used for elicitation. Error bars indicate the standard error of three independent replicates.
(A) Induction of ethylene biosynthesis in agroinfiltrated tobacco explants expressing EFR, WAK1, WEG and EWAK. […] Agroinfiltrated leaf tissues expressing EFR or WEG and elicited with OGs or elfl8 respectively, represented our negative control. Values are means±s.e.m. (N=3). (B) Elicitor-induced gene expression in untransformed Col-0 and Col-0 efr plants, and in transgenic Arabidopsis Col-0 efr plants stably expressing WEG. Accumulation of At3g22270 and At4g37640 transcripts was analysed by semi-quantitative PCR, using the UBQ5 gene for normalization. Adult leaves were syringe-infiltrated with water, OGs (25 μg/ml) or elfl8 (10 μM) for 3 h. The experiment was repeated three times with similar results. The same experiment was performed in a second independent transgenic line expressing WEG with similar results.
Approximately 150 mg of tobacco agroinfiltrated leaf were cut in small slices and extensively washed with sterile distilled water. The explants were placed in sealed 10 mL flasks containing 2 mL of sterile water alone or supplemented with 100 mg L^−1 OGs, or 1 μM flg22 or 10 μM elfl8. 450 μl headspace samples were withdrawn from the vial after 2 h treatment and analyzed by gas chromatography-mass spectrometry using an Agilent 6850A gas chromatograph coupled to a 5973N quadrupole mass selective detector (Agilent Technologies, Palo Alto, Calif., USA). Chromatographic separations were carried out an HP Plot-Q fused-silica capillary column (30 m×0.32 mm i.d.) coated with polystyrene-divinylbenzene (film thickness 0.20 μm) as stationary phase. Injection mode: splitless at a temperature of 220° C. The initial temperature of the oven was held at 50° C. for 8 min then ramped to 220° C. at a rate of 15° C./min and held for 5 min. Helium was used as carrier gas at a constant flow of 1.0 ml/min. Mass spectra were collected both in full scan and in SIM mode monitoring the ions m/z m/z 26, m/z 27 and m/z 28 (ionization energy 70 eV; ion source 280° C.; ion source vacuum 10^−5 Torr).

[3] = system: agroinfiltrated leaves of N. tabacum ecotype SR1; test: Receptor internalization in agroinfiltrated tobacco leaves; assay type: cell-based, Nicotiana tabacum; details: 10 μM flg22, 30 min
Description: E) Relative variation of fluorescence in agroinfiltrated tobacco leaves expressing EFR, FLS2, eJMC and TMC and treated with 10 μM elfl8 or 10 μM flg22 for 30 min.
(§1) The GFP-dependent fluorescence was monitored from 2 to 4 days post infection in cells of the lower epidermis. Pieces of leaf were randomly cut from the infected area and mounted in water or supplemented with elicitors for microscopic observations. Flg22 and elfl8 were used at 10 μM while oligosaccharides were used at 100 μg/mL. Materials were analyzed using a Leica DM IRE epifluorescence microscope equipped with a digital cooled camera (DFC350FX R2; Leica). GFP fluorescence was excited with a 488-nm laser line, and emitted fluorescence was collected at 543-nm. The Leica Confocal Software and Adobe Photoshop 5.0 were used for post-acquisition image processing. All samples were imaged with the 40× or 100× oil objectives. Pictures were taken in Kahlman frame giving an average of 16 scans for the dynamics of internalization and 4 scans for the cellular localizations.
The behaviour of TMC and eJMC upon treatment with flg22 and elfl8 was also analysed in agroinfiltrated leaves of N. tabacum ecotype SR1 and compared to that of EFR and FLS2. […] Instead, in the eJMC expressing plants fluorescence decreased within 10-30 min after stimulation with flg22, at an extent similar to that observed in Arabidopsis, i.e. by 25% and 35% after 20 min and 30 min, respectively (FIG. 3E).

[4] = system: agroinfiltrated Arabidopsis thaliana Col-0 leaves; test: Receptor internalization: decrease of GFP fluorescence by confocal microscopy in agroinfiltrated Arabidopsis Col-0 leaves; assay type: cell-based; details: 10 μM flg22, 30 min
Description: PCR templates are shown in bold. Primers listed in Table 1 are shown in capital letters. Stable transgenic lines were generated using the standard A. tumefaciens-mediated gene transfer procedure of inflorescence infiltration (Bent et al., 2006). Independent transformed plant pools were kept separate for the selection of independent transgenic lines based on their phosphinotrycin resistance and leaves GFP fluorescence. Tobacco and Arabidopsis transient transgenic lines were prepared by infiltrating with Agrobacterium tumefaciens carrying the individual constructs, as described by Reca (2008).
as §1, with “localizations. […]” for “localizations.”
The dynamics of fluorescence localization upon treatment with elicitors was then studied. Whereas endocytosis of surface receptors upon ligand binding often occurs in animals (Warren and Landgraf 2006), this mechanism in plants has emerged only recently (Geldner & Robatzek 2008) and, so far, FLS2 is the only receptor involved in plant immunity shown to undergo endocytosis upon the specific stimulation with flg22 (Robatzek et al., 2006). The authors tested the effect of flg22 and elf 18, i.e. the peptides specifically recognized by FLS2 and EFR respectively, and oligogalacturonides with a degree of polymerization between 10 and 16 (OGs), which act as general elicitors of defense responses in several plants. Explants from agroinfiltrated Arabidopsis leaves at 2 dpi were treated with elicitors and then subjected to confocal microscopy analysis. […] Instead, when eJMC-expressing explants were stimulated with flg22, the fluorescent signal decreased by 25% and 40% after 20 min and 30 min, respectively (FIG. 3B).
The first chimeric receptor, indicated as WEG, comprised the WAK1 ectodomain fused to the TM-iJM-kinase portion of EFR and was designed to test the ability of the WAK1 ectodomain to perceive OGs and transmit the signal inside the cell. […] Both WEG and EWAK as well as WAK1 were fused to GFP and used in agroinfiltration experiments (FIG. 5A). […] Western-blot analysis using GFP-specific antibodies on proteins from IWF and microsomal fractions prepared from infiltrated leaves confirmed the plasma membrane localization of both fluorescent chimeras (FIG. 5D). The effect of OGs on the internalization of WEG was followed in agroinfiltrated Arabidopsis Col-0 leaves. […] This might be due to the inability of WEG to uncouple its ectodomain from pectins, since it is known that WAK1 strongly binds to pectin and only denaturing treatments allow its separation from cell wall (He et al., 1996). On the other hand, affinity studies have shown that WAK1 interact with cell wall pectins that are in a Ca^2+-induced conformation (i.e. the structures called “egg boxes”) and that the interaction is disrupted by adding a chelating agent such as EDTA (Decreux et al., 2005; Cabrera et al., 2008). The authors therefore tested whether OG-induced internalization of WEG occurred in the presence of 5 mM EDTA. WEG-expressing agroinfiltrated leaves were syringe-infiltrated with OGs and after 30 min the tissues were mounted in the presence of EDTA for confocal microscopy analysis. […]

In the case of QRLSTGSRINSAKDDAAGLQIA [flg22], the “expression of RetOx, CYP81F2 and PAD3 in untransformed Ws-0 plants” value [1] is reported as “not in the untransformed plants”.
With “TMC: chimera (Ala817FLS2-Leu661EFR): FLS2 LRR, eJM and N-terminal half of TM fused to C-terminal half of EFR TM, iJM and kinase” the “ethylene release induced by flg22” value [2] was “only a weak response”, the “internalization after stimulation with flg22” value [3] was “Neither FLS2 nor TMC underwent internalization” and the “decrease in fluorescence upon treatment with flg22” value [4] was “did not show any decrease in fluorescence”.
